Measurements taken from article PMC6652007, “Metabolic engineering of Clostridium thermocellum for n-butanol production from cellulose” (Biotechnology for Biofuels, 2019).
Like-named read-outs stand apart in the source and are kept apart here.

Legend:
Ts_Bad = test system: T1, Ts_Bad; test: NADH oxidation, A340; format: biochemical, Thermoanaerobacter sp. (strain X514); conditions: 0.3 mM NADH, 100 mM MOPS-KOH pH 7.5, 55 °C, anaerobic
T1 construct: gene bad; His-tagged (vector pD861-CH), codon-optimised, expressed in E. coli BL21(DE3), purified anaerobically
Description: NADH oxidation, A340 on Ts_Bad

Tt_Hbd = molecular target: T2, Tt_Hbd (Thermoanaerobacterium thermosaccharolyticum, UniProt P77851, D31A/I32R, form not given); test: NAD(P)H oxidation, A340; format: biochemical; conditions: acetoacetyl-CoA as substrate, 100 mM MOPS-KOH pH 7.5, 55 °C
T2 construct: gene hbd; His-tagged (vector pD861-CH), codon-optimised, expressed in E. coli BL21(DE3)
T2 sequence (P77851 whole entry D31A/I32R, form open): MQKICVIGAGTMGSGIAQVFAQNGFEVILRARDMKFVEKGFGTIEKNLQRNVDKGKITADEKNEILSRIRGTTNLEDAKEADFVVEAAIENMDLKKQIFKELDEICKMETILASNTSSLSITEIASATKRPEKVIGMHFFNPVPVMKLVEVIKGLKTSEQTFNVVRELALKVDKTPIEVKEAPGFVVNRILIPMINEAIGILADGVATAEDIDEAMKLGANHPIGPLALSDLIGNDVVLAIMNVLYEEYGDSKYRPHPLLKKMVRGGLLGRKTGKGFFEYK
Description: NAD(P)H oxidation, A340 on Tt_Hbd

SMILES | Km (Ts_Bad) [µM] | also measured
CC(=O)SCCNC(=O)CCNC(=O)[C@H](O)C(C)(C)COP(=O)(O)OP(=O)(O)OC[C@H]1O[C@@H](n2cnc3c(N)ncnc32)[C@H](O)[C@@H]1OP(=O)(O)O [Acetyl-CoA] | 90 ± 10 | –
CCCC(=O)SCCNC(=O)CCNC(=O)[C@H](O)C(C)(C)COP(=O)(O)OP(=O)(O)OC[C@H]1O[C@@H](n2cnc3c(N)ncnc32)[C@H](O)[C@@H]1OP(=O)(O)O [Butyryl-CoA] | 200 ± 100 | –
NC(=O)C1=CN([C@@H]2O[C@H](COP(=O)(O)OP(=O)(O)OC[C@H]3O[C@@H](n4cnc5c(N)ncnc54)[C@H](O)[C@@H]3O)[C@@H](O)[C@H]2O)C=CC1 [NADH] | – | Km (Tt_Hbd; read-out: NADH / Km): 110 ± 20 µM
NC(=O)C1=CN([C@@H]2O[C@H](COP(=O)(O)OP(=O)(O)OC[C@H]3O[C@@H](n4cnc5c(N)ncnc54)[C@H](OP(=O)(O)O)[C@@H]3O)[C@@H](O)[C@H]2O)C=CC1 [NADPH] | – | Km (Tt_Hbd; read-out: NADPH / Km): 30 ± 10 µM
